According to patent US10336746B1, “RAD51 inhibitors” (Cyteir Therapeutics, Inc., priority 2017, dated 2019):

Key:
[1] = system: WI-38 cells (AID negative); experiment: Primary screening cell killing assay repeated in WI-38 cells (AID negative); type: cell-based; conditions: Homo sapiens, 168 h, cell death on Day 7, Cell-Titer Glo
Summary of the method: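 Cell-killing counter-screen in AID-negative WI-38 cells, probing RAD51 inhibition via AID/RAD51 synthetic lethality. Viability luminescence (RLU) was media-subtracted, normalized to DMSO wells, and converted to percent kill (1 − normalized RLU) × 100; EC50 came from non-linear regression on a semi-log scale.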

[2] = system: Daudi cell line (AID positive); experiment: Primary screening cell killing assay, Daudi cell line (AID positive); type: cell-based; conditions: Homo sapiens, 168 h, cell death on Day 7, Cell-Titer Glo
Summary of the method: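 AID-positive Daudi cells, 1250 per well, were exposed to serially diluted compounds for 7 days at 37° C. Viability read by CellTiter-Glo luminescence; percent cell death and EC50 derived against untreated wells after media-blank subtraction.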

Caco-2 cells = experiment: Bi-directional Caco-2 permeability; type: in vitro ADME; conditions: Caco-2
Method: Bi-directional Caco-2 permeability was assayed. Caco-2 cells were seeded onto permeable polycarbonate supports and allowed to differentiate for about 3 weeks prior to being used in the assays. The cells were then exposed to the compounds from either the apical or basolateral sides and incubated at 37 C for up to 90 minutes under light agitation. Compound transport was then measured using LC/MS/MS analysis at 30, 60, and 90 minutes.

BA/AB Ratio (Caco-2 cells): 0.9
SMILES: CC(C)OC(=O)Nc1ccc(-c2cnc([C@@H]3CC[C@@H](NC(=O)OC(C)C)CO3)s2)c(S(=O)(=O)NC(C)(C)C)c1 (relative stereo) [Ex. 60, trans-isopropyl N-[6-[5-[2-(tert-butylsulfamoyl)-4-(isopropoxycarbonylamino)phenyl]thiazol-2-yl]tetrahydropyran-3-yl]carbamate]
EC50 [1]: > 1000 nM | EC50 [2]: 100 to 1000 nM
